Assay results taken from patent publication US5068337A, “1,4-dihydropyridines and their ability to inhibit blood platelet aggregation, inhibit thromboxane synthetase and phospholipase” (John Wyeth & Brother Limited, priority 1984, dated 1991).
pIC50: −log10 of the molar value.

Columns and labels:
isolated rat portal vein = test: calcium antagonist activity: response of isolated rat portal vein to increasing calcium ion concentration in vitro; conditions: read-out: molar concentration required to reduce the response by 50%
Text: In this-test a-molar concentration of 2×10^-7 M of 1,4-dihydro-2-(imidazol- 1-ylmethyl)-6-methyl 4-(3-nitrophenyl)pyridine-3, 5-dicarboxylic acid 3-ethyl 5-methyl ester was required to reduce the response by 50%.

thromboxane synthetase = test: inhibition of thromboxane production (TxB2 radio-immunoassay, rabbit platelet rich plasma); type: cell-based; conditions: Oryctolagus cuniculus, rabbit PRP, adenosine diphosphate and adrenalin, read-out: IC50 (50% inhibition of TxB2)
Description: The compounds of formula I were tested for their ability to inhibit thromboxane production by the following standard test:
a) Generation of thromboxanes
Blood (approx. 75 ml) is obtained from an anaesthetised rabbit and centrifuged at 200 g for 10 minutes to obtain platelet rich plasma (PRP). An aliquot of PRP is incubated for 10 minutes at 37° C. in the presence of vehicle or drug. Platelet aggregation is induced by the addition of adenosine diphosphate and adrenalin. The tubes are incubated for 3 minutes, centrifuged at 10,000 for 3 minutes and a […] aliquot of the supernatant taken for radio-immunoassay of thromboxane B2 (TxB2).
b) Radio-immunoassay of TxB2
The total incubation volume is 150μ containing 50μl of ^3 H - TxB2 (0.005 μCi), […] of sample or authentic TxB2 ranging from 5 to 300 pg per tube as standards and 50 μl of rabbit anti-sera to TxB2 (in a concentration which will bind 50% of H-TxB2) After incubation for 1 hour at room temperature the tubes are further incubated for 16-20 hours at 4° C. 1 ml of dextran-coated charcoal is then added to the tubes which are further incubated on ice for 10 minutes. Following the incubation the samples are centrifuged at 10,000 g for 10 minutes and […] of the supernatant added to 5 ml of scintillation cocktail. Measurement of the radioactivity in the supernatant quantifies the amount of [^3 H]-TxB2 bound by the antibody. The concentration of unlabelled TxB2 in the sample is then determined from a linear standard curve.
IC50 values represent the concentrations of drug which achieve 50% inhibition of TxB2.

[1] = tested on: spontaneously hypertensive rats; test: antihypertensive activity in spontaneously hypertensive rats (tail cuff systolic pressure); type: in vivo, rat
Description: The compounds of formula I were tested for antihypertensive activity by the following standard procedure:
The blood pressures of male or female spontaneously hypertensive rats are measured in a 37° C constant temperature housing by means of a tail cuff. Rats with systolic pressures below 155 mmHg are discarded. Groups of rats are dosed orally with the test substance in a suitable vehicle or with vehicle alone. Systolic pressures are recorded before dosing and at selected time points afterwards. Heart rates are derived from caudal artery pulses. Results are analysed statistically by means of 2 way analysis of variance (within group).

[2] = tested on: blood platelet aggregation; test: inhibition of blood platelet aggregation (arachidonic acid induced, rabbit platelet rich plasma); type: cell-based, rabbit (New Zealand White); conditions: IC50 dazoxiben / IC50 test; 250 μM arachidonic acid, rabbit PRP
Description: Compounds of formula I were tested for their ability to inhibit blood platelet aggregation by a modification of the procedure of Fantl, Australian J.Exp.Biol- Med.Sci. 45, 355-62 1967.
Since platelet aggregation is the initial step in thrombus formation it -is considered that compounds which prevent aggregation or reduce platelet adhesiveness may inhibit the initiation of the atherosclerotic process. The effect of drugs on adhesiveness is measured in platelet-rich plasma containing a small amount of arachidonic acid which markedly increases aggregation in vitro and may be a physiological agent for doing so in vivo. The actual test procedure used in described below.
New Zealand White rabbits (2.5-3kg) are anaesthetised with an injection, via the marginal ear vein, of […]. The carotid artery is cannulated and blood (100-150 ml) is withdrawn into 50 ml syringes containing 3.8% sodium citrate (Ratio blood: citrate =9:1).
Blood is centrifuged at 200 g (1500 r.p.m.) for 10 minutes at 5° C. and the platelet rich plasma (PRP) removed. The platelets are then kept at room temperature in a screw topped plastic centrifuge tube for the duration of the experiment.
A twin channel platelet aggregometer--(HU aggregometer, A. Browne Ltd, Leicester, UK) is used. 1.0 ml aliquots of PRP are prewarmed for 5-10 minutes and stirred continuously at 1100 rpm. Aggregation is induced by addition of 250μM arachidonic acid, (8μl volume) to the PRP samples. The aggregometer output is set at maximum and the chart recorder sensitivity is altered to give a full scale deflection to this arachidonic acid response.
Control responses are recorded as the maximum deflection obtained after addition of 250μM arachidonic acid.
PRP samples are preincubated for 1 minute with the test compounds followed by arachidonic acid addition. The maximum deflection after the addition of arachidonic acid is then recorded. All drugs are screened initially at 10^-4 M (final concentration), i.e. 10μl of a 1×10^-2 M stock solution of the drug dissolved in distilled water is added to the PRP.
Dazoxiben, a thromboxane synthetase inhibitor (Randall, M. J. et al Research 23 145-162, 1981)is used as a positive control and all test components are compared with Dazoxiben. The activity of the test compound is expressed as the ratio IC50 Dazaxiben/IC50 Test where IC50 is the dose required to inhibit the A.A. induced aggregation by 50%.

human platelet PLA2 = test: Phospholipase A2 (PLA2) inhibition, hydrolysis of E.coli membrane phospholipids by human platelet PLA2; type: biochemical; conditions: 100 μM
Description: Of particular interest for this activity are compounds of formula I wherein Ar represents an aryl radical having a 2-nitro substituent. […] PLA2 activity was assayed by a procedure based on Franson, R.C., Chapter 12. Intracellular Metabolism of Ingested Phospholipids. Liposomes: from Physical Structure to Therapeutic Applications. North-Holland Biomedical Press, 1981, pp 349-380 and involving measuring the hydrolysis of E.coli membrane phospholipids and the release of free [1-^14 ]oleic acid from the C-2 position of phospholipids by human platelet PLA2.

SMILES | pIC50 (isolated rat portal vein) | pIC50 (thromboxane synthetase) | BLOOD PRESSURE as % of pre-dose level ([1]; 0.003 mmol/kg po, 6 hrs) | BLOOD PRESSURE as % of pre-dose level ([1]; 0.003 mmol/kg po, 24 hrs) | BLOOD PRESSURE as % of pre-dose level ([1]; 0.003 mmol/kg po, t = 2 hrs) | BLOOD PRESSURE as % of pre-dose level ([1]; 0.03 mmol/kg po, 6 hrs) | BLOOD PRESSURE as % of pre-dose level ([1]; 0.03 mmol/kg po, 24 hrs) | BLOOD PRESSURE as % of pre-dose level ([1]; 0.03 mmol/kg po, t = 2 hrs) | BLOOD PRESSURE as % of pre-dose level ([1]; 0.15 mmol/kg po, 6 hrs) | BLOOD PRESSURE as % of pre-dose level ([1]; 0.15 mmol/kg po, 24 hrs) | BLOOD PRESSURE as % of pre-dose level ([1]; 0.15 mmol/kg po, t = 2 hrs) | Inhibition of blood platelet aggregation potency ratio (dazoxiben = 1) [2] | inhibition of PLA2 activity (human platelet PLA2)
CCOC(=O)C1=C(COc2cccnc2)NC(C)=C(C(=O)OC)C1c1cccc([N+](=O)[O-])c1 (stereo not drawn) [Example 4, 1,4-Dihydro-2methyl-4-(3-nitrophenyl)-6-[(3-pyridyloxy)methyl]pyridine-3,5-dicarboxylic acid 5-ethyl-3-methyl diester] |  |  |  |  |  |  |  |  |  |  |  | 1.1 | 
COC(=O)C1=C(C)NC(CCn2ccnc2)=C(C(=O)OC)C1c1ccccc1[N+](=O)[O-] (stereo not drawn) [Example 3, 1,4-Dihydro-2-[2-(1-imidazolyl)ethyl]-6-methyl-4-(2-nitrophenyl)pyridine-3,5-dicarboxylic acid dimethyl ester] |  |  |  |  |  |  |  |  |  |  |  | 1.64 | 

Continued, in another order:

pIC50 (isolated rat portal vein) | pIC50 (thromboxane synthetase) | SMILES | BLOOD PRESSURE as % of pre-dose level ([1]; 0.003 mmol/kg po, 6 hrs) | BLOOD PRESSURE as % of pre-dose level ([1]; 0.003 mmol/kg po, 24 hrs) | BLOOD PRESSURE as % of pre-dose level ([1]; 0.003 mmol/kg po, t = 2 hrs) | BLOOD PRESSURE as % of pre-dose level ([1]; 0.03 mmol/kg po, 6 hrs) | BLOOD PRESSURE as % of pre-dose level ([1]; 0.03 mmol/kg po, 24 hrs) | BLOOD PRESSURE as % of pre-dose level ([1]; 0.03 mmol/kg po, t = 2 hrs) | BLOOD PRESSURE as % of pre-dose level ([1]; 0.15 mmol/kg po, 6 hrs) | BLOOD PRESSURE as % of pre-dose level ([1]; 0.15 mmol/kg po, 24 hrs) | BLOOD PRESSURE as % of pre-dose level ([1]; 0.15 mmol/kg po, t = 2 hrs) | Inhibition of blood platelet aggregation potency ratio (dazoxiben = 1) [2] | inhibition of PLA2 activity (human platelet PLA2)
6.70 | 5.30 | CCOC(=O)C1=C(Cn2ccnc2)NC(C)=C(C(=O)OC)C1c1cccc([N+](=O)[O-])c1 (stereo not drawn) [Example 1, 1,4-Dihydro-2-(imidazol-1-ylmethyl)-6-methyl-4-(3-nitro-phenyl)pyridine-3,5-dicarboxylic acid 3-ethyl 5-methyl diester] | 70% | 83% | 65% | 62% | 105% | 48% | 46% | 85% | 42% | 1.2 | 
 | 4.91 | COC(=O)C1=C(C)NC(CCn2cnc3ccccc32)=C(C(=O)OC)C1c1cccc(Cl)c1Cl (stereo not drawn) [Example 5, 2-[2-(1-Benzimidazolyl)ethyl]-4-[2,3-dichlorophenyl]-1,4-dihydro-6-methylpyridine-3,5-dicarboxylic acid dimethylester] |  |  |  |  |  |  |  |  |  |  | 
 | 5.64 | CCOC(=O)C1=C(C)NC(CCn2ccnc2)=C(C(=O)OCC)C1c1ccccc1[N+](=O)[O-] (stereo not drawn) [Example 2, 1,4-Dihydro-2-[2-(imidazol-1-yl)-ethyl]-6-methyl-4-(2-nitrophenyl)pyridine-3,5-dicarboxylic acid diethyl ester] |  |  |  | 99% | 105% | 63% | 42% | 74% | 35% | 0.79 | 77%
